Experimental data reported in ChEMBL document CHEMBL1136222, “1-Benzyloxy-4,5-dihydro-1H-imidazol-2-yl-amines, a novel class of NR1/2B subtype selective NMDA receptor antagonists” (Bioorg Med Chem Lett, 2003).

Legend:
Glutamate NMDA receptor = test: Binding affinity for N-methyl-D-aspartate glutamate receptor was measured through displacement of [3H]25-6981; assay type: protein-complex assay
[1] = pKa value was determined; assay type: physicochemical
[2] = target: T1, Adrenergic receptor alpha-2 (Rattus norvegicus, UniProt P22086+P19328+P22909); test: Binding affinity towards Alpha-2 adrenergic receptor was measured through displacement of [3H]-RX-821002; assay type: protein assay
T1 sequence (P22086 whole entry): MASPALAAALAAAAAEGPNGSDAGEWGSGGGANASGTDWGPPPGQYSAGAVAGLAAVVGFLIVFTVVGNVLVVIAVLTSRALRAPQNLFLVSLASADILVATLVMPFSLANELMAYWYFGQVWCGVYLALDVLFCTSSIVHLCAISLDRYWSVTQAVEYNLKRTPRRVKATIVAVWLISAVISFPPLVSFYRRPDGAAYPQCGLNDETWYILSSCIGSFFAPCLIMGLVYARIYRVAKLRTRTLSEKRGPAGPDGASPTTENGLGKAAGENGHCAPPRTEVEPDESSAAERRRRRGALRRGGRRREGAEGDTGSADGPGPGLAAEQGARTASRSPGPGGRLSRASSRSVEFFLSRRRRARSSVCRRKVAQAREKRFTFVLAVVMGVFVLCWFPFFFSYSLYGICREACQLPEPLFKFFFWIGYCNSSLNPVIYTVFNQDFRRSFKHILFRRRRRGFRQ
T1 sequence (P19328 whole entry): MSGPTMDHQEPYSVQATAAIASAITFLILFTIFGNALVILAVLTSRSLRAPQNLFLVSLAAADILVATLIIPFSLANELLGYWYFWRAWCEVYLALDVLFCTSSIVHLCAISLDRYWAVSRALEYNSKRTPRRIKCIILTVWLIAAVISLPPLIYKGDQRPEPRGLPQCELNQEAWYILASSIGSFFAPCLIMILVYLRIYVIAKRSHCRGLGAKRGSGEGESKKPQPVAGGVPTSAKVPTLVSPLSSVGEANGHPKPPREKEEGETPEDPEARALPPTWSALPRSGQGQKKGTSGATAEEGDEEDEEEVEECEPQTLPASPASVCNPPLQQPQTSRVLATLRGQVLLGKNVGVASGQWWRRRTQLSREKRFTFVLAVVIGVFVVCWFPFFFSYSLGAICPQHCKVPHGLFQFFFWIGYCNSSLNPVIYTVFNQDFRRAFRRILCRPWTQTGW
T1 sequence (P22909 whole entry): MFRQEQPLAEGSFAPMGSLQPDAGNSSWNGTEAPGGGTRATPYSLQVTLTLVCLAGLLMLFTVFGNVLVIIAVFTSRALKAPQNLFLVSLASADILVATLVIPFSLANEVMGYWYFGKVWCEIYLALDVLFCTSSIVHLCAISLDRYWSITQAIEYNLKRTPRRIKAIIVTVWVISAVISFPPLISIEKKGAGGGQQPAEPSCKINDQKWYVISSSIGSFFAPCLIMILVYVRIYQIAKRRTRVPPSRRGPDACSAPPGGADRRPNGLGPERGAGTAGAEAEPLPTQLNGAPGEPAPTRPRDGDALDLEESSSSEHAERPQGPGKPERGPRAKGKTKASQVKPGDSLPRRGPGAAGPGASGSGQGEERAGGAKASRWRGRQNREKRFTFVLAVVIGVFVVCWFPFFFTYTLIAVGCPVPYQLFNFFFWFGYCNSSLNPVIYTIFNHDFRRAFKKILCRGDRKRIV

[3] = target: T2, Adrenergic receptor alpha-1 (Rattus norvegicus, UniProt P15823+P23944+P43140); test: Binding affinity towards Alpha-1 adrenergic receptor was measured through displacement of [3H]prazosin; assay type: protein assay
T2 sequence (P15823 whole entry): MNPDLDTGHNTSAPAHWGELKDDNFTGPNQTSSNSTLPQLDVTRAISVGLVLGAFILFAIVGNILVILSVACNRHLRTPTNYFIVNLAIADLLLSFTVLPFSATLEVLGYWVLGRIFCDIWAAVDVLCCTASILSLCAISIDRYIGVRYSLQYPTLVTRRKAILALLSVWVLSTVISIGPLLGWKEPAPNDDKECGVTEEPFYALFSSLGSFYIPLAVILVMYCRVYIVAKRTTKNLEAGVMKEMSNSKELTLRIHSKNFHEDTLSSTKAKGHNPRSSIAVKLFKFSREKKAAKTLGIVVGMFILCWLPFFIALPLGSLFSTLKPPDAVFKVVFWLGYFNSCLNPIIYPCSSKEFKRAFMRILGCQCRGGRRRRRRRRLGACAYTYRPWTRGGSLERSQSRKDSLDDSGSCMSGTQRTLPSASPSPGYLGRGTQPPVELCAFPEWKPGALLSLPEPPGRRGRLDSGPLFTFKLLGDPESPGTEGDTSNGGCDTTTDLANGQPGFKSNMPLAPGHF
T2 sequence (P23944 whole entry): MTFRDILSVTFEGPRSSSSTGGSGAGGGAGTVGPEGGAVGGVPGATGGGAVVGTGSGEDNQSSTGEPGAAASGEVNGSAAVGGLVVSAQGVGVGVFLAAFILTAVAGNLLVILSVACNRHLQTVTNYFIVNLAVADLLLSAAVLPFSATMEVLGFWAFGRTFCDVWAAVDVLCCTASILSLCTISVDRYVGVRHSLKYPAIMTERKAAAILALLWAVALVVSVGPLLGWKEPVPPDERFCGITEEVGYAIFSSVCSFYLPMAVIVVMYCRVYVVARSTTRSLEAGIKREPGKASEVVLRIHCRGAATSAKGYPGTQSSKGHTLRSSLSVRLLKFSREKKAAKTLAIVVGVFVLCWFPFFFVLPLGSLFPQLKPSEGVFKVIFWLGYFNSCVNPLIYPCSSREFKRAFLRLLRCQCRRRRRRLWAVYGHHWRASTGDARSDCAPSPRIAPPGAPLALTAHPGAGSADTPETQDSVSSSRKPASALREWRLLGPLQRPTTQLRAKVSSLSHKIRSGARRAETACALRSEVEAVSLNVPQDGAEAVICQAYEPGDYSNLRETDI
T2 sequence (P43140 whole entry): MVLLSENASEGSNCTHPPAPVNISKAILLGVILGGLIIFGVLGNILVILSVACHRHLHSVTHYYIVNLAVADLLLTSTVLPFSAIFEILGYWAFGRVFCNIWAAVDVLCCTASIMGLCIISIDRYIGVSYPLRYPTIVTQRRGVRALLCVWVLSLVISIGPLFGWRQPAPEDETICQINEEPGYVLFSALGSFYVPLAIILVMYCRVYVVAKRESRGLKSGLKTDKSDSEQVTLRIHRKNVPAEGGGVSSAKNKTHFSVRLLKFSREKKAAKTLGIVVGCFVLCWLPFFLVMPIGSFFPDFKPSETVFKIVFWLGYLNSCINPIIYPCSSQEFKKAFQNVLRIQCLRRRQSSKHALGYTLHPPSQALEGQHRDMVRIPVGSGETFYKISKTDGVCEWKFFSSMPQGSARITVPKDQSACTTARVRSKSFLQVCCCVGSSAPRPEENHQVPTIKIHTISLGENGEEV

Rattus norvegicus = organism: Rattus norvegicus; test: Effect on K+ channels in rat cortical neurones at 10 uM; assay type: functional

Row | SMILES | Ki (Glutamate NMDA receptor) | further results
1 | c1ccc(CCCCNC2=NCCN2OCc2ccccc2)cc1 | 0.38 µM | –
2 | c1ccc(CCCNC2=NCCN2OCc2ccccc2)cc1 | 0.75 µM | –
3 | CCCCCNC1=NCCN1OCc1ccccc1 | – | pKa [1]: 10.1; Ki [2]: 30 µM; Ki [3]: 5.5 µM; Effect (Rattus norvegicus): 48%
4 | CCCCC/N=C1/CCCN1CCc1ccccc1 | – | pKa [1]: > 11
5 | CCCCCNC1=NCCN1OCc1ccc([N+](=O)[O-])cc1 | 1.1 µM | –
6 | OCCNC1=NCCN1OCc1ccccc1 | 2.25 µM | –
7 | Oc1ccc(CCNC2=NCCN2OCc2ccccc2)cc1 | 0.38 µM | –
8 | CCCCCNC1=NCCN1OCc1ccc(-c2ccccc2)cc1 | 1.1 µM | –
9 | CCCCCNC1=NCCN1OCc1ccc(C)cc1 | 0.23 µM | –
10 | c1ccc(CON2CCN=C2NC2CC2)cc1 | 0.26 µM | –
11 | C=CCNC1=NCCN1OCc1ccccc1 | 1.1 µM | –
12 | CCCCNC1=NCCCN1OCc1ccccc1 | 0.75 µM | pKa [1]: > 12
13 | CCCCCNc1nc2ccccc2n1CCc1ccccc1 | – | pKa [1]: 7.4
14 | CCCCCNC1=NCCN1OCc1ccccc1OC | 0.28 µM | –
15 | CCCCCSC1=NCCN1OCc1ccccc1 | 6 µM | pKa [1]: 8.5
16 | c1ccc(COCCNC2=NCCN2OCc2ccccc2)cc1 | 1.5 µM | –
17 | c1ccc(CCNC2=NCCN2OCc2ccccc2)cc1 | 1.1 µM | –
18 | CC(C)NC1=NCCN1OCc1ccccc1 | 5.6 µM | –
19 | CCCCCNC1=NCCN1OCc1cccc([N+](=O)[O-])c1 | 0.53 µM | –
20 | CCCCCNC1=NCCN1OCc1cccc(OC)c1 | 0.56 µM | –
21 | c1ccc(CON2CCN=C2NCc2cccnc2)cc1 | 0.38 µM | –
22 | CCCCCNC1=NCCN1OCCc1ccccc1 | – | pKa [1]: 9.9; Ki [2]: 10 µM; Ki [3]: 4.9 µM; Effect (Rattus norvegicus): 63%
23 | CCCCCNC1=NCCN1OCCCc1ccccc1 | 0.98 µM | pKa [1]: 10

Continued, in another order:

Row | Ki (Glutamate NMDA receptor) | SMILES | further results
24 | 0.23 µM | CCCCCNC1=NCCN1CCc1ccccc1 | pKa [1]: > 12
25 | 0.17 µM | CCCCCNC1=NCCN1OCc1ccc(Cl)cc1 | –
26 | 0.056 µM | CCCCCNC1=NCCN1OCc1cccs1 | –
27 | 0.1 µM | CCCCCNC1=NCCN1OCc1ccc(F)cc1 | –
28 | 0.075 µM | CCCCCCNC1=NCCN1OCc1ccccc1 | –
29 | 0.13 µM | c1ccc(CNC2=NCCN2OCc2ccccc2)cc1 | –
30 | 0.038 µM | CCCCCNC1=NCCN1OCc1ccccc1Cl | –
31 | 0.038 µM | CCCCCNC1=NCCN1OCc1cccc(C)c1 | –
32 | 0.11 µM | CCCCCNC1=NCCN1OCc1ccc(OC)cc1 | –
33 | 0.023 µM | CCCCCNC1=NCCN1OCc1cccc(F)c1 | –
34 | 0.06 µM | CCCCNC1=NCCN1OCc1ccccc1 | –
35 | 0.015 µM | CCCCCNC1=NCCN1OCc1ccccc1F | –
36 | 0.034 µM | CCCCCNC1=NCCN1OCc1ccccc1C | –
